Format in all cases: in vivo
One experiment deals with Alopecurus myosuroides. As to the kind of experiment: Greenhouse pre-emergence (PRE) herbicidal test on ALOMY. As to conditions: Alopecurus myosuroides, pre-emergence, ALOMY PRE, use rate 200 gai/ha. The essentials:
(§1)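 Each species is sown separately into loamy sand containing roughly 3.0% humus and treated before emergence. Pots are watered and covered until roots establish, then held at 10-25° C or 20-35° C. Injury is rated on a 0 to 100 scale 20 days post-treatment.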

The next experiment deals with Euphorbia heterophylla. Briefly: Greenhouse pre-emergence (PRE) herbicidal test on EPHHL. The conditions noted are these: Euphorbia heterophylla, pre-emergence, EPHHL PRE, use rate 200 gai/ha. The essentials:
as §1

The test system of a further experiment is Brachiaria decumbens. Briefly: Greenhouse pre-emergence (PRE) herbicidal test on BRADC. As to conditions: Urochloa decumbens, BRADC PRE, use rate 200 gai/ha. From the text:
(§2) The culture containers used were plastic pots containing loamy sand with approximately 3.0% of humus as substrate. The seeds of the test plants were sown separately for each species.
(§3) For the pre-emergence treatment, the active compounds, suspended or emulsified in water, were applied directly after sowing by means of finely distributing nozzles. The containers were irrigated gently to promote germination and growth and subsequently covered with transparent plastic hoods until the plants had rooted. This cover caused uniform germination of the test plants unless this was adversely affected by the active compounds.
(§4) Depending on the species, the plants were kept at 10-25° C. and 20-35° C., respectively.
(§5) The test period extended over 2 to 4 weeks. During this time, the plants were tended and their response to the individual treatments was evaluated.
(§6) Evaluation was carried out using a scale from 0 to 100. 100 means no emergence of the plants, or complete destruction of at least the above-ground parts, and 0 means no damage or normal course of growth. A good herbicidal activity is given at values of at least 70, and very good herbicidal activity is given at values of at least 85.
(§7) If not stated differently, the respective components A and B, and if appropriate, C were formulated as a 5% by weight strength emulsion concentrate and, with addition of the amount of solvent system, introduced into the spray liquor used for applying the active compound.
(§8) As indicated application was either post emergent (POST) at the respective growth stage (GS) of the weed (BBCH code), or pre-emergent (PRE).
(§9) Assessment was 20 days after treatment (DAT).

A further experiment concerns Lolium multiflorum. As to the kind of experiment: Greenhouse pre-emergence (PRE) herbicidal test on LOLMU. In outline:
as §1

For another experiment, the system named is Commelina benghalensis. As to the kind of experiment: Greenhouse pre-emergence (PRE) herbicidal test on COMBE. The conditions noted are these: Commelina benghalensis, pre-emergence, COMBE PRE, use rate 50 gai/ha. In outline: as §1
A further experiment deals with Abutilon theophrasti. As to the kind of experiment: Greenhouse pre-emergence (PRE) herbicidal test on ABUTH. The conditions noted are these: Abutilon theophrasti, pre-emergence, ABUTH PRE, use rate 50 gai/ha. In outline:
as §1

In a further experiment the test system is SETFA. Briefly: Greenhouse pre-emergence (PRE) herbicidal test on SETFA. The conditions noted are these: Setaria faberi, use rate 50 gai/ha.
The test system of a further experiment is Avena fatua. As to the kind of experiment: Greenhouse pre-emergence (PRE) herbicidal test on AVEFA.
From the text: as §2, §3, §4, §5, §6, §7, §8, §9

The next experiment deals with Geranium pusillum. As to the kind of experiment: Greenhouse pre-emergence (PRE) herbicidal test on GERPU. As to conditions: Geranium pusillum, pre-emergence, GERPU PRE. The essentials: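 PRE spray directly after sowing, fine nozzles; actives suspended/emulsified in water, components formulated as 5% w/w EC in spray liquor. Substrate loamy sand ~3.0% humus. Hooded until rooting; 10-25° C. / 20-35° C. per species. Score 0–100, 20 DAT.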

Experiment [1] has as its system AMAPA. Briefly: Greenhouse post-emergence (POST) herbicidal test on AMAPA. The conditions noted are these: use rate 12.5 gai/ha, 20 DAT.
In a further experiment the test system is Ambrosia artemisiifolia. Briefly: Greenhouse pre-emergence (PRE) herbicidal test on AMBEL. As to conditions: PRE, use rate 12.5 gai/ha, 20 DAT.
Experiment [2] has as its system AMAPA. As to the kind of experiment: Greenhouse pre-emergence (PRE) herbicidal test on AMAPA. As to conditions: use rate 3.1 gai/ha, 20 DAT.

As a reminder, the inhibition is the share of the control response that was lost under treatment. A higher inhibition goes with a strong effect.

Regarding `CCCCOCN(C(=O)CCl)c1c(CC)cccc1CC` [Butachlor, butachlor], the inhibition at 200 g/ha was 0% with Alopecurus myosuroides; 5% in the experiment on Euphorbia heterophylla; 30% with Brachiaria decumbens; 0% in the experiment on Lolium multiflorum (Lolium multiflorum, pre-emergence, LOLMU PRE, use rate 200 gai/ha); 0% with Avena fatua (use rate 200 gai/ha); 25% in the experiment on Geranium pusillum (use rate 200 gai/ha). The inhibition at 50 g/ha amounted to 0% in the experiment on Lolium multiflorum (Lolium multiflorum, pre-emergence, LOLMU PRE, use rate 50 gai/ha); 70% with Commelina benghalensis; 0% with Abutilon theophrasti; 25% with SETFA; 0% in the experiment on Avena fatua (use rate 50 gai/ha); 55% with Geranium pusillum (use rate 50 gai/ha).
As for `C#CCN(C)c1c(C#N)cnn1-c1nn2c(c1Cl)CCCC2` [Pyraclonil, pyraclonil], the “% activity” value is reported as 0% in the experiment with Lolium multiflorum (PRE, use rate 12.5 gai/ha, 20 DAT); 90% with AMAPA [1]; 0% with Ambrosia artemisiifolia; 50% in the experiment with AMAPA [2].
